Test results taken from PubChem BioAssay (NCI).
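48-hour exposure; five concentrations; linearly interpolated endpoints. The concentration for full growth arrest is given as TGI.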

Tests used:
Test in all cases: NCI-60 cell line screen, 48 h
MDA-MB-231 breast = test system: MDA-MB-231 breast
SR leukemia = test system: SR leukemia
HT29 colon = test system: HT29 colon
T-47D breast = test system: T-47D breast
PC-3 prostate = test system: PC-3 prostate
CAKI-1 renal = test system: CAKI-1 renal
SW-620 colon = test system: SW-620 colon
LOX IMVI melanoma = test system: LOX IMVI melanoma
DU-145 prostate = test system: DU-145 prostate
OVCAR-5 ovarian = test system: OVCAR-5 ovarian
HCT-116 colon = test system: HCT-116 colon
HOP-62 NSCLC = test system: HOP-62 NSCLC
U251 CNS = test system: U251 CNS

| Structure (SMILES) | TGI (MDA-MB-231 breast) | TGI (SR leukemia) | TGI (HT29 colon) | TGI (T-47D breast) | TGI (PC-3 prostate) | TGI (CAKI-1 renal) | TGI (SW-620 colon) | TGI (LOX IMVI melanoma) | TGI (DU-145 prostate) | TGI (OVCAR-5 ovarian) | TGI (HCT-116 colon) | TGI (HOP-62 NSCLC) | TGI (U251 CNS) |
| --- | --- | --- | --- | --- | --- | --- | --- | --- | --- | --- | --- | --- | --- |
| CCCC(=O)O[C@H]1C=C2C[C@@]34SS[C@]5(CC6=C[C@H](OC(C)=O)[C@@H]7O[C@@H]7[C@H]6N5C3=O)C(=O)N4[C@@H]2[C@H]2O[C@H]21 | 0.246 µM | 50 µM | 0.0166 µM | 0.605 µM | 0.0611 µM | 1.09 µM | 0.671 µM | 0.131 µM | 0.362 µM | 0.251 µM | 0.0285 µM | 0.0892 µM | 0.113 µM |
| O=C(N/N=C/c1ccc([N+](=O)[O-])o1)c1ccc(C(=O)N/N=C/c2ccc([N+](=O)[O-])o2)cc1 | > 100 µM | > 100 µM | > 100 µM | > 100 µM | > 100 µM | > 100 µM | > 100 µM | 94.9 µM | > 100 µM | > 100 µM | > 100 µM | > 100 µM | > 100 µM |
| Cc1cc(N=Nc2c(O)ccc3ccccc23)ccc1N=Nc1cccc([N+](C)(C)C)c1 | 55.3 µM | > 100 µM | 25.1 µM | > 100 µM | 35.1 µM | 62.9 µM | 46.9 µM | > 40.3 µM | 48.2 µM | 60.8 µM | 75.5 µM | 43.2 µM | 14.1 µM |
| CC(=O)NNc1nc(C)c(C(/C=C/c2ccc([N+](=O)[O-])cc2)=N/NC(N)=S)s1 | > 100 µM | > 100 µM | > 100 µM | > 100 µM | > 100 µM | > 100 µM | > 100 µM | > 100 µM | > 100 µM | > 100 µM | > 100 µM | > 100 µM | > 100 µM |
| Cn1c(-c2cccs2)cc(-c2cccs2)c1-c1ccco1 | > 100 µM | > 100 µM | > 100 µM | 12 µM | > 100 µM | > 38.1 µM | > 100 µM | 62.9 µM | > 100 µM | > 100 µM | > 100 µM | > 100 µM | > 100 µM |
| COc1cc(C2SC(N)=Nc3c2c(C)nn3C(=O)c2ccccc2O)ccc1O (stereo unspecified) | > 10 µM | > 2.73 µM | > 10 µM | > 10 µM | > 10 µM | > 10 µM | > 10 µM | > 10 µM | > 10 µM | > 10 µM | > 10 µM | > 10 µM | > 10 µM |
| O=C1O[C@H]2[C@H](O)[C@@H](OC(=O)c3cc(O)c(O)c4c3[C@@H]3C1=CC(=O)C(O)(O)C3(O)O4)[C@H](OC(=O)c1cc(O)c(O)c(O)c1)O[C@@H]2CO (stereo partly specified) | > 100 µM | > 100 µM | > 100 µM | > 100 µM | > 100 µM | > 100 µM | > 100 µM | > 100 µM | > 100 µM | > 100 µM | > 100 µM | > 100 µM | > 100 µM |
| O=C1N2CCc3c([nH]c4ccccc34)C23CC2CCCCC12S3 (stereo unspecified) | > 100 µM | > 100 µM | > 100 µM | > 100 µM | > 100 µM | > 100 µM | > 100 µM | > 100 µM | > 100 µM | > 100 µM | > 100 µM | > 100 µM | > 100 µM |
| Cc1ccc2c(c1)C(=O)N1CCC[C@H]1C=N2 | > 66.5 µM | > 92.1 µM | > 55.6 µM | > 100 µM | > 74.4 µM | > 71.7 µM | > 83.7 µM | > 100 µM | > 100 µM | > 93.1 µM | > 100 µM | > 83.1 µM | > 85.2 µM |
| CCN(CC)CCNC(=O)c1ccc(I)cc1 | > 100 µM | > 100 µM | > 100 µM | > 100 µM | > 100 µM | > 100 µM | > 100 µM | > 100 µM | > 100 µM | > 100 µM | > 100 µM | > 100 µM | > 100 µM |
| Cc1cc(S(=O)(=O)/N=C(\[N-]S(=O)(=O)c2ccc(Cl)cc2)[n+]2ccc(N(C)C)cc2)c(S)cc1Cl | > 100 µM | 3.13 µM | > 100 µM | > 100 µM | > 100 µM | > 100 µM | > 100 µM | > 100 µM | > 100 µM | > 100 µM | 44.7 µM | > 100 µM | > 100 µM |
| CCCCOC(=O)NC(Nc1cccc(C(F)(F)F)c1)(C(F)(F)F)C(F)(F)F | > 100 µM | 60.4 µM | > 100 µM | 45.3 µM | > 100 µM | > 100 µM | > 100 µM | > 100 µM | > 100 µM | > 100 µM | > 100 µM | > 100 µM | > 100 µM |
| CN(C)Cc1cc(C(C)(C)C)ccc1-c1ccc(C(C)(C)C)cc1CN(C)C | > 100 µM | > 100 µM | > 100 µM | > 100 µM | > 100 µM | > 100 µM | > 100 µM | > 100 µM | > 100 µM | > 100 µM | > 100 µM | > 100 µM | > 100 µM |
| O=C(C[n+]1ccccc1)N/N=C(\Cc1nc2ccc([N+](=O)[O-])cc2[nH]c1=O)C(=O)Nc1cc(Cl)c(Cl)cc1Cl | > 100 µM | > 100 µM | > 100 µM | > 100 µM | > 100 µM | > 100 µM | > 100 µM | > 100 µM | > 100 µM | > 100 µM | > 100 µM | – | > 100 µM |
| COP(=O)(Cc1ccccc1)Cc1ccccc1 | > 100 µM | > 100 µM | > 100 µM | > 100 µM | > 100 µM | > 100 µM | > 100 µM | > 100 µM | > 100 µM | > 100 µM | > 100 µM | > 100 µM | > 100 µM |
| CC=CCOc1cc(NC(=S)OC(C)C)ccc1Cl (mixture of isomers) | 51.5 µM | 44.6 µM | 28.7 µM | 35.7 µM | 34.3 µM | 22.8 µM | 35.3 µM | 35.8 µM | 76.9 µM | 44.5 µM | 33.6 µM | 45.4 µM | 32.8 µM |
| Cc1nc2c(nc1C)-c1c(c3c(n1C)C(=O)CCC3)C(=O)C2=O | 0.803 µM | 0.769 µM | 3.89 µM | 0.0932 µM | 3.14 µM | 0.286 µM | 0.534 µM | 0.397 µM | 2.44 µM | 2.72 µM | 1.44 µM | 2.37 µM | 0.533 µM |
| Nc1ncc(Cl)c(NCC2(CO)CC(CCc3ccccc3)C2)n1 (stereo unspecified) | > 100 µM | > 100 µM | > 100 µM | > 100 µM | > 100 µM | > 100 µM | > 100 µM | > 100 µM | > 100 µM | > 100 µM | > 100 µM | > 100 µM | > 100 µM |
| O=C(Nc1c(C(F)(F)F)cc(-c2ccccc2)[nH]c1=O)N1CCOCC1 | > 100 µM | > 100 µM | > 100 µM | > 100 µM | > 100 µM | > 100 µM | > 100 µM | > 100 µM | > 100 µM | > 100 µM | > 100 µM | > 100 µM | > 100 µM |
| O=C(Nc1cc2c(=O)oc3ccccc3c2oc1=O)c1cccnc1 | > 100 µM | > 100 µM | > 100 µM | > 100 µM | > 100 µM | > 100 µM | > 100 µM | > 100 µM | > 100 µM | > 100 µM | > 100 µM | – | > 100 µM |
| CC(C)(C)OC(=O)N(O)CCCn1cnc2c(N)ncnc21 | > 100 µM | > 100 µM | > 100 µM | > 100 µM | > 100 µM | – | > 100 µM | > 100 µM | > 100 µM | > 100 µM | > 100 µM | > 100 µM | > 100 µM |
| COC(=O)C1c2c(c3ccccc3n2C(=O)OC)CCN2CCC1C(S(=O)(=O)c1ccccc1)C2=O (stereo unspecified) | > 100 µM | > 100 µM | > 100 µM | > 100 µM | > 100 µM | > 100 µM | > 100 µM | > 100 µM | > 100 µM | > 100 µM | > 100 µM | > 100 µM | > 100 µM |
| CN(C)CC1COC2Cc3ccccc3C1O2 (stereo unspecified) | > 100 µM | > 100 µM | > 100 µM | > 100 µM | > 100 µM | > 100 µM | – | > 100 µM | > 100 µM | > 100 µM | > 100 µM | > 100 µM | > 100 µM |
| C/C(=N\Nc1nc2ccccc2n1C)c1cnccn1 | 71.9 µM | > 100 µM | > 42.5 µM | > 100 µM | > 100 µM | > 100 µM | > 100 µM | > 20 µM | > 100 µM | > 100 µM | – | 37 µM | > 100 µM |
| OC[C@]1(n2nc3ccccc3n2)OC[C@@H]1c1ccccc1 | > 100 µM | > 100 µM | > 100 µM | > 100 µM | > 100 µM | > 100 µM | – | > 100 µM | > 100 µM | > 100 µM | > 100 µM | > 100 µM | > 100 µM |
| C=C(C)C1CC/C(C)=C/CC[C@]2(C)O[C@H]2CC/C(COC(C)=O)=C\[C@@H]1O (stereo partly specified) | > 50 µM | > 50 µM | > 50 µM | > 50 µM | > 50 µM | > 50 µM | > 50 µM | – | > 50 µM | > 50 µM | > 50 µM | > 50 µM | > 50 µM |
